Key:
subjects with DLB = assay: Phase 2 randomized, double-blind, placebo-controlled study of neflamapimod in subjects with DLB; assay type: in vivo, human; conditions: DLB patients
Text: A Phase 2, multi-center, randomized, double-blind, placebo-controlled study is run of neflamapimod versus matching placebo (randomized 1:1) administered with food for 16 weeks in subjects with DLB. The primary objective is to evaluate the effect of neflamapimod on cognitive function as assessed in a study-specific COGSTATE Neuropsychological Test Battery (NTB). Secondary endpoints include the Clinical Dementia Rating Scale-Sum of Boxes (CDR-SB), Mini-Mental State Examination (MMSE), Neuropsychiatric Inventory (NPI-10), Timed Up and Go Test, and electroencephalogram (EEG) as a potential biomarker for DLB.
Neflamapimod 40 mg capsules are administered orally, BID or TID with food for 16 weeks; subjects will follow the BID regimen if weighing <80 kg or the TID regimen if weighing ≥80 kg. A placebo comparator is 40 mg matching placebo capsules administered orally, BID or TID with food for 16 weeks; subjects will follow the BID regimen if weighing <80 kg or the TID regimen if weighing ≥80 kg.
A primary outcome measure is a composite score of a study-specific COGSTATE Neurological Test Battery (NTB) including the COGSTATE Letter Fluency Test and Category Fluency Test at 16 weeks. A change from Baseline to Week 16 in the composite score of a study-specific Cog-state Neurological Test Battery (NTB), including assessments of attention, executive function, and visuospatial function in neflamapimod treated-subjects as compared to the placebo-treated subjects, are analyzed using the Mixed Model Repeated Measures (MMRM) analysis method. The following six tests are included in the composite: (1) COGSTATE Detection test (DET), (2) COGSTATE Identification test (IDN), (3) COGSTATE One Card Learning test (OCL), (4) COGSTATE One Back test (ONB), (5) Letter Fluency Test, (6) Category Fluency Test (CFT). Each score on the individual tests will be converted to a z-score, and then a total z-score will be calculated, in which each test is weighted equally. The change in total z-score in neflamapimod vs. placebo-recipients is analyzed. […]

Ts2 mice = Ts2 mice treated 28 days with neflamapimod; medial septal nucleus ChAT+ neurons quantitated; assay type: in vivo; conditions: 3 mg/kg twice-daily
Description: Wild-type (WT) or Ts2 mice treated for 28 days, twice-daily, with vehicle (1% PluronicF108) or 3 mg/kg neflamapimod in vehicle (n=8-10 per group; 1:1 female/male). Treatment initiated at 4.7-6.4 months of age, when cholinergic neuronal loss is developing in Ts2 mice. Cortical Rab5+ endosomal number and size, and medial septal nucleus (MSN) cholineacetyltransferase (ChAT)+ neurons quantitated.

**Q.** For O=c1ncn2nc(Sc3ccc(F)cc3F)ccc2c1-c1c(Cl)cccc1Cl [neflamapimod], which “Mean change from baseline to Week 8, MMSE” value (subjects with DLB; 40 mg TID dosing regimen, increase represents improvement, p=0.033 vs placebo) is on record?
**A.** +1.07

**Q.** What about the “Mean change from baseline to Week 4, Letter Fluency Test (LFT)” value (subjects with DLB; 40 mg capsules BID or TID, increase represents improvement, p=0.027 vs placebo, preliminary assessment) of the same compound?
**A.** +3.0

**Q.** What about the “Mean change from baseline to Week 4, COGSTATE Detection test (DET)” value (subjects with DLB; 40 mg capsules BID or TID, reduction represents improvement, p=0.031 vs placebo, preliminary assessment) of the same compound?
**A.** −0.024

**Q.** What about the “cholinergic neuron degeneration in the medial septal nucleus” value (Ts2 mice) of the same compound?
**A.** ameliorated

**Q.** And the “morphology (size) of ChAT+ neurons in the medial septal nucleus (MSN)” value (Ts2 mice; oral)?
**A.** normalizes

**Q.** What about the “ChAT-positive neuron number in the medial septal nucleus” value (Ts2 mice; oral, stereological quantification) of the same compound?
**A.** normalizes

Reference: patent US20220133729A1, “COMPOSITIONS AND METHODS FOR TREATING BASAL FOREBRAIN DISEASE” (EIP Pharma, Inc., priority 2019, published 2022)
